Reference: patent publication US9289461B2, “Reducing the risk of autoimmune disease” (Mead Johnson Nutrition (Asia Pacific) Pte. Ltd., priority 2013, dated 2016)

Test system: STC-1 (intestinal endocrine cell line)
Experiment: CCK release from STC-1 intestinal endocrine cell line
Type: cell-based
Conditions: compared with a partial hydrolysate (Gentlease) or free amino acids

Substance	CCK release from STC-1 cells
ALPMHIR [specific peptide from a casein hydrolysate of the present disclosure]	may stimulate CCK release
DISLLDAQSAPLR [specific peptide from a casein hydrolysate of the present disclosure]	may stimulate CCK release
GPVRGPFP [specific peptide from a casein hydrolysate of the present disclosure]	may stimulate CCK release
